Results: ChEMBL document CHEMBL5608163, “Structure modification of anoplin for fighting resistant bacteria” (Eur J Med Chem, 2024)
In brackets after ≈: the same amount, converted by molar mass. Peptide text beside a SMILES is read from it.

Experiments:
[1] = tested on: Staphylococcus aureus; assay: Antibacterial activity against Staphylococcus aureus ATCC 25923 assessed as reduction in bacterial growth incubated for 18 to 20 hrs by Mueller Hinton broth dilution method; assay type: functional; details: time 18-20 hrs
[2] = tested on: Bacillus subtilis; assay: Antibacterial activity against Bacillus subtilis ATCC 23857 assessed as reduction in bacterial growth incubated for 18 to 20 hrs by Mueller Hinton broth dilution method; assay type: functional; details: time 18-20 hrs
[3] = tested on: Escherichia coli; assay: Antibacterial activity against Escherichia coli ATCC 25922 assessed as reduction in bacterial growth incubated for 18 to 20 hrs by Mueller Hinton broth dilution method; assay type: functional; details: time 18-20 hrs
[4] = tested on: Pseudomonas aeruginosa; assay: Antibacterial activity against Pseudomonas aeruginosa ATCC 27853 assessed as reduction in bacterial growth incubated for 18 to 20 hrs by Mueller Hinton broth dilution method; assay type: functional; details: time 18-20 hrs
[5] = tested on: Klebsiella pneumoniae; assay: Antimicrobial activity against Klebsiella pneumoniae assessed as reduction in bacterial growth incubated for 18 to 20 hrs by Mueller-Hinton broth based microdilution method; assay type: functional; details: time 18-20 hrs
[6] = tested on: Erythrocyte; assay: Hemolytic activity in mouse Red blood cells incubated for 1 hr by microplate reader assay; assay type: toxicity, cell-based; details: erythrocyte, 1 h
[7] = tested on: Staphylococcus aureus; assay: Antibacterial activity against Staphylococcus aureus ATCC 25923 assessed as reduction in bacterial growth incubated for 18 to 24 hrs by broth microdilution method; assay type: functional; details: time 18-24 hrs
[8] = tested on: Escherichia coli; assay: Antibacterial activity against Escherichia coli ATCC 25922 assessed as reduction in bacterial growth by broth microdilution method; assay type: functional

Structure (SMILES)	MIC [1]	MIC [2]	MIC [3]	MIC [4]	MIC [5]	HC10 [6]	MIC [7]	MIC [8]
CC[C@H](C)[C@H](NC(=O)[C@H](CCCNC(=N)N)NC(=O)[C@@H](CCCCN)NC(=O)[C@H](CC(C)C)NC(=O)[C@H](CC(C)C)NC(=O)CN)C(=O)N[C@H](CCCCN)C(=O)N[C@H](C(=O)N[C@@H](CC(C)C)C(=O)N[C@@H](CC(C)C)C(N)=O)[C@@H](C)O	> 256 µM	64 µM (≈ 73.8 µg/mL)	256 µM (≈ 295 µg/mL)	64 µM (≈ 73.8 µg/mL)	256 µM (≈ 295 µg/mL)	> 300 µM	–	–
CC[C@H](C)[C@H](NC(=O)[C@H](CCCNC(=N)N)NC(=O)[C@H](CCCCN)NC(=O)[C@H](CC(C)C)NC(=O)[C@@H](CC(C)C)NC(=O)CN)C(=O)N[C@@H](CCCCN)C(=O)N[C@H](C(=O)N[C@@H](CC(C)C)C(=O)N[C@H](CC(C)C)C(N)=O)[C@@H](C)O	> 256 µM	64 µM (≈ 73.8 µg/mL)	128 µM (≈ 148 µg/mL)	64 µM (≈ 73.8 µg/mL)	> 256 µM	> 300 µM	–	–
CC[C@H](C)[C@H](NC(=O)[C@H](CCCNC(=N)N)NC(=O)[C@H](CCCCN)NC(=O)[C@@H](CC(C)C)NC(=O)[C@H](CC(C)C)NC(=O)CN)C(=O)N[C@@H](CCCCN)C(=O)N[C@H](C(=O)N[C@H](CC(C)C)C(=O)N[C@@H](CC(C)C)C(N)=O)[C@@H](C)O	> 256 µM	16 µM (≈ 18.5 µg/mL)	32 µM (≈ 36.9 µg/mL)	8 µM (≈ 9.23 µg/mL)	256 µM (≈ 295 µg/mL)	> 300 µM	–	–
CC[C@H](C)[C@H](NC(=O)[C@H](CCCNC(=N)N)NC(=O)[C@@H](CCCCN)NC(=O)[C@H](CC(C)C)NC(=O)[C@H](CC(C)C)NC(=O)CN)C(=O)N[C@@H](CCCCN)C(=O)N[C@@H](C(=O)N[C@@H](CC(C)C)C(=O)N[C@@H](CC(C)C)C(N)=O)[C@H](C)O	> 256 µM	32 µM (≈ 36.9 µg/mL)	256 µM (≈ 295 µg/mL)	128 µM (≈ 148 µg/mL)	> 256 µM	–	–	–
CC[C@H](C)[C@H](NC(=O)[C@H](CCCNC(=N)N)NC(=O)[C@H](CCCCN)NC(=O)[C@H](CC(C)C)NC(=O)[C@H](CC(C)C)NC(=O)CN)C(=O)N[C@@H](CCCCN)C(=O)N[C@H](C(=O)N[C@H](CC(C)C)C(=O)N[C@H](CC(C)C)C(N)=O)[C@@H](C)O	64 µM (≈ 73.8 µg/mL)	8 µM (≈ 9.23 µg/mL)	256 µM (≈ 295 µg/mL)	8 µM (≈ 9.23 µg/mL)	128 µM (≈ 148 µg/mL)	> 300 µM	–	–
CC[C@H](C)[C@H](NC(=O)[C@H](CCCNC(=N)N)NC(=O)[C@H](CCCCN)NC(=O)[C@@H](CC(C)C)NC(=O)[C@H](CC(C)C)NC(=O)CN)C(=O)N[C@@H](CCCCN)C(=O)N[C@H](C(=O)N[C@H](CC(C)C)C(=O)N[C@H](CC(C)C)C(N)=O)[C@@H](C)O	64 µM (≈ 73.8 µg/mL)	8 µM (≈ 9.23 µg/mL)	256 µM (≈ 295 µg/mL)	8 µM (≈ 9.23 µg/mL)	64 µM (≈ 73.8 µg/mL)	> 300 µM	–	–
CC[C@H](C)[C@H](NC(=O)[C@@H](CCCNC(=N)N)NC(=O)[C@H](CCCCN)NC(=O)[C@H](CC(C)C)NC(=O)[C@H](CC(C)C)NC(=O)CN)C(=O)N[C@H](CCCCN)C(=O)N[C@H](C(=O)N[C@@H](CC(C)C)C(=O)N[C@@H](CC(C)C)C(N)=O)[C@@H](C)O	> 256 µM	32 µM (≈ 36.9 µg/mL)	256 µM (≈ 295 µg/mL)	32 µM (≈ 36.9 µg/mL)	256 µM (≈ 295 µg/mL)	> 300 µM	–	–
CC[C@H](C)[C@H](NC(=O)[C@H](CCCNC(=N)N)NC(=O)[C@H](CCCCN)NC(=O)[C@@H](CC(C)C)NC(=O)[C@@H](CC(C)C)NC(=O)CN)C(=O)N[C@@H](CCCCN)C(=O)N[C@H](C(=O)N[C@@H](CC(C)C)C(=O)N[C@@H](CC(C)C)C(N)=O)[C@@H](C)O	> 256 µM	16 µM (≈ 18.5 µg/mL)	128 µM (≈ 148 µg/mL)	8 µM (≈ 9.23 µg/mL)	> 256 µM	> 300 µM	–	–
CC[C@H](C)[C@H](NC(=O)[C@H](CCCNC(=N)N)NC(=O)[C@H](CCCCN)NC(=O)[C@H](CC(C)C)NC(=O)[C@H](CC(C)C)NC(=O)[C@H](C)N)C(=O)N[C@@H](CCCCN)C(=O)N[C@H](C(=O)N[C@@H](CC(C)C)C(=O)N[C@@H](CC(C)C)C(N)=O)[C@@H](C)O (H-ALLKRIKTLL-NH2)	–	–	–	–	–	–	> 18 µM	> 18 µM
CC[C@H](C)[C@H](NC(=O)[C@H](CCCNC(=N)N)NC(=O)[C@H](CCCCN)NC(=O)[C@H](CC(C)C)NC(=O)[C@H](C)NC(=O)CN)C(=O)N[C@@H](CCCCN)C(=O)N[C@H](C(=O)N[C@@H](CC(C)C)C(=O)N[C@@H](CC(C)C)C(N)=O)[C@@H](C)O (H-GALKRIKTLL-NH2)	–	–	–	–	–	–	> 38.7 µM	> 38.7 µM
